System: T1, βgal5
T1 construct: gene AUR.contig-100_1620_7; GH42; N-terminal 6-His with TEV site (pET-TEV), E. coli BL21(DE3), Ni-NTA
Experiment: nitrophenol release, absorbance […] nm
Assay type: biochemical
Conditions: buffer Z (phosphate, KCl, MgSO4), 30 °C; 2.5-20 mM substrate; read-out: Km (mM) / ONPG

O=[N+]([O-])c1ccccc1O[C@@H]1O[C@H](CO)[C@H](O)[C@H](O)[C@H]1O [2-nitrophenyl-β-D-galactopyranoside]
Km: 14.5 mM

Source: paper PMC7823827, “β-Galactosidases from a Sequence-Based Metagenome: Cloning, Expression, Purification and Characterization” (Microorganisms, 2020)
